Data reported in ChEMBL document CHEMBL1201862, “PubChem BioAssay data set” (2004).
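Cultured in 96-well plates, cells were exposed to test compound for 48 hours across five concentrations. Abbreviation: GI50, concentration required for 50% inhibition of growth.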 Activity calls are given as the source filed them. Rule as the data show it: active = GI50 up to about 1.1 µM and inactive = higher.

Experiments:
Assay in all cases: growth of human tumour cells (NCI), 48 h
K562 = tested on: K562
M14 = tested on: M14
HCT-116 = tested on: HCT-116
SK-OV-3 = tested on: SK-OV-3
IGROV-1 = tested on: IGROV-1
A498 = tested on: A498
DMS-273 = tested on: DMS-273
UACC-257 = tested on: UACC-257
NCI-H522 = tested on: NCI-H522
DMS-114 = tested on: DMS-114
SK-MEL-2 = tested on: SK-MEL-2
SR = tested on: SR
SF-268 = tested on: SF-268
SN12C = tested on: SN12C
SW-620 = tested on: SW-620
HOP-92 = tested on: HOP-92
XF498 = tested on: XF498
BT-549 = tested on: BT-549
T47D = tested on: T47D
PC-3 = tested on: PC-3

Measured: GI50

CC1CC2=Nc3ccccc3NC(c3ccccc3)C2=C(O)O1 (stereo unspecified)
inactive: K562 > 100 µM | M14 > 100 µM | HCT-116 > 100 µM | SK-OV-3 > 100 µM | IGROV-1 > 100 µM | A498 > 100 µM | DMS-273 > 100 µM | UACC-257 > 100 µM | NCI-H522 47.1 µM | DMS-114 > 100 µM | SK-MEL-2 > 100 µM | SR 63.1 µM | SF-268 > 100 µM | SN12C > 100 µM | SW-620 > 100 µM

CCCCSCC(NC(=O)/C=C/c1c(C)[nH]c(=O)[nH]c1=O)C(=O)OC (stereo unspecified)
inactive: K562 44.1 µM | HOP-92 36.1 µM | HCT-116 30.3 µM | SK-OV-3 45.4 µM | IGROV-1 84.5 µM | A498 79.6 µM | DMS-273 88.3 µM | UACC-257 81.7 µM | NCI-H522 14.9 µM | DMS-114 30.1 µM | SK-MEL-2 25.2 µM | SF-268 23 µM | SN12C 37.8 µM | SW-620 78 µM

CCN(CC)CC(C)(C)C(=O)/C=C/c1ccc(C)cc1
inactive: K562 3.03 µM | M14 12.1 µM | HOP-92 1.91 µM | HCT-116 4.3 µM | SK-OV-3 22.6 µM | A498 4.54 µM | XF498 7.96 µM | NCI-H522 3.03 µM | SK-MEL-2 12.7 µM | SR 3.61 µM | SF-268 10.1 µM | SN12C 7.64 µM | SW-620 3.55 µM

CCOC(=O)C1=C(Nc2ccccc2)OC/C1=N\NC(=O)Cc1ccccc1
inactive: K562 > 50 µM | M14 > 50 µM | HOP-92 > 50 µM | HCT-116 > 50 µM | SK-OV-3 > 50 µM | IGROV-1 > 50 µM | A498 > 50 µM | UACC-257 > 50 µM | XF498 > 50 µM | NCI-H522 > 50 µM | DMS-114 > 50 µM | SK-MEL-2 > 50 µM | SF-268 > 50 µM | SN12C > 50 µM | SW-620 > 50 µM

CN1C(=O)NC2(O)c3ccccc3C(=O)C12O (stereo unspecified)
inactive: K562 > 100 µM | M14 > 100 µM | HOP-92 > 100 µM | HCT-116 > 100 µM | SK-OV-3 > 100 µM | IGROV-1 > 100 µM | UACC-257 > 100 µM | XF498 > 100 µM | NCI-H522 > 100 µM | DMS-114 > 100 µM | SK-MEL-2 > 100 µM | SR > 100 µM | SF-268 > 100 µM | SW-620 > 100 µM

CCCCC1=CSC(c2ccccc2)=C(c2ccccc2)S1
inactive: K562 8.83 µM | M14 85.1 µM | HOP-92 11.7 µM | HCT-116 6.46 µM | SK-OV-3 > 100 µM | IGROV-1 > 100 µM | A498 > 100 µM | DMS-273 26.7 µM | DMS-114 > 100 µM | SN12C 97.5 µM | SW-620 69 µM

COC(=O)/C(C#N)=C1\CCC(O)N1C (stereo unspecified)
inactive: K562 > 100 µM | M14 > 100 µM | HCT-116 > 100 µM | SK-OV-3 > 100 µM | IGROV-1 > 100 µM | UACC-257 > 100 µM | XF498 > 100 µM | NCI-H522 > 100 µM | DMS-114 > 100 µM | SK-MEL-2 > 100 µM | SF-268 > 100 µM | SN12C > 100 µM | SW-620 > 100 µM

CC1(C)CC23C4COC(=O)C2CCC1C3CC4=O (stereo unspecified)
inactive: K562 9.84 µM | HOP-92 8.26 µM | HCT-116 6.71 µM | SK-OV-3 39.3 µM | IGROV-1 21.9 µM | A498 5.92 µM | DMS-273 19.9 µM | UACC-257 9.59 µM | XF498 13.7 µM | NCI-H522 3.32 µM | SK-MEL-2 14.5 µM | SF-268 10.6 µM | SN12C 15.8 µM | SW-620 3.04 µM

Cc1ccccc1NC(=O)C(=O)C1CN(c2ccccc2)N=C1N (stereo unspecified)
inactive: K562 > 100 µM | M14 > 100 µM | HOP-92 > 100 µM | HCT-116 > 100 µM | SK-OV-3 > 100 µM | IGROV-1 > 100 µM | A498 > 100 µM | UACC-257 > 100 µM | XF498 > 100 µM | NCI-H522 > 100 µM | SR > 100 µM | SF-268 > 100 µM | SN12C > 100 µM

CCCCCCC/C=C1\CCC(CN(C)C)C1=O (stereo unspecified)
inactive: K562 2.83 µM | M14 9.71 µM | BT-549 14.7 µM | HOP-92 17.3 µM | HCT-116 7.23 µM | T47D 2.98 µM | SK-OV-3 23.7 µM | IGROV-1 19.1 µM | A498 19.9 µM | UACC-257 15.1 µM | XF498 20.5 µM | NCI-H522 5.48 µM | SK-MEL-2 15.9 µM | SR 3.47 µM | SF-268 17.4 µM | SN12C 9.1 µM | SW-620 6.19 µM | PC-3 14.5 µM

CC(C)(C)C1=NO[C@H]2[C@@H](NC(=O)c3ccccc3)CC[C@@H]12
inactive: K562 > 100 µM | M14 > 100 µM | HOP-92 98.2 µM | HCT-116 > 100 µM | SK-OV-3 > 100 µM | IGROV-1 > 100 µM | UACC-257 > 100 µM | XF498 > 100 µM | NCI-H522 > 100 µM | DMS-114 > 100 µM | SR > 100 µM | SF-268 > 100 µM | SN12C > 100 µM | SW-620 > 100 µM

CC(=O)OC(C)(C)C[N+](=O)[O-]
inactive: K562 > 100 µM | M14 > 100 µM | HOP-92 > 100 µM | HCT-116 > 100 µM | SK-OV-3 > 100 µM | IGROV-1 > 100 µM | DMS-273 > 100 µM | UACC-257 > 100 µM | NCI-H522 63.4 µM | DMS-114 > 100 µM | SK-MEL-2 > 100 µM | SR > 100 µM | SF-268 > 100 µM | SN12C > 100 µM | SW-620 > 100 µM

CC(C(=O)C(C)O[Si](c1ccccc1)(c1ccccc1)C(C)(C)C)=P(c1ccccc1)(c1ccccc1)c1ccccc1 (stereo unspecified)
inactive: K562 2.95 µM | M14 4.32 µM | HOP-92 2.21 µM | HCT-116 2.98 µM | SK-OV-3 2.42 µM | IGROV-1 3.7 µM | A498 4.28 µM | UACC-257 3.71 µM | XF498 2.79 µM | DMS-114 2.39 µM | SK-MEL-2 2.5 µM | SN12C 3.77 µM | SW-620 3.91 µM

CC1CCCCc2nc3c(c(=O)n21)CCCC3 (stereo unspecified)
inactive: K562 > 100 µM | M14 > 100 µM | HOP-92 > 100 µM | HCT-116 > 100 µM | SK-OV-3 > 100 µM | IGROV-1 > 100 µM | DMS-273 > 100 µM | UACC-257 > 100 µM | XF498 > 100 µM | NCI-H522 > 100 µM | SK-MEL-2 > 100 µM | SF-268 > 100 µM | SN12C > 100 µM | SW-620 > 100 µM
